Here are results for 21 molecules from patent US9670221B2, “Furopyridines as bromodomain inhibitors” (GlaxoSmithKline Intellectual Property (No.2) Limited, priority 2013, dated 2017).

Counter-ions that a name gives are not always drawn.

This assay has as its target T1, BRD4 BD1 (Homo sapiens, UniProt O60885, Y390A).
T1 construct: BRD4 (1-477) (Y97A) and (Y390A); made in house; host or cells: E. coli (pET15b vector)
The assay can be described thus: TR-FRET binding assay, BRD4 BD1 (mutant protein). As to conditions: BRD4 (1-477) mutant, 10 nM protein, read-out: pIC50 in the BRD4 BD1 assay (converted). Here is the method:
Time Resolved Fluorescence Resonance Energy Transfer (TR-FRET) Assay
Binding was assessed using a time resolved fluorescent resonance energy transfer binding assay. This utilises a 6 His purification tag at the N-terminal of the proteins as an epitope for an anti-6 His antibody labeled with Europium chelate (PerkinElmer AD0111) allowing binding of the Europium to the proteins which acts as the donor fluorophore. A small molecule, high affinity binder of the bromodomains BRD2, BRD3, BRD4 and BRDT has been labeled with Alexa Fluor647 (Reference Compound X) and this acts as the acceptor in the FRET pair.
Assay Principle: In the absence of a competing compound, excitation of the Europium causes the donor to emit at λ618 nm which excites the Alexa labelled bromodomain binding compound leading to an increased energy transfer that is measurable at λ647 […]. In the presence of a sufficient concentration of a compound that can bind these proteins, the interaction is disrupted leading to a quantifiable drop in fluorescent resonance energy transfer.
The binding of the compounds of formula (I) to Bromodomains BRD2, BRD3, BRD4 and BRDT was assessed using mutated proteins to detect differential binding to either Binding Domain 1 (BD1) or Binding Domain 2 (BD2) on the bromodomain. These single residue mutations in the acetyl lysine binding pocket greatly lower the affinity of the fluoroligand (Reference Compound X) for the mutated domain (>1000 fold selective for the non-mutated domain). Therefore in the final assay conditions, binding of the fluoroligand to the mutated domain cannot be detected and subsequently the assay is suitable to determine the binding of compounds to the single non-mutated bromodomain.
Protein production: Recombinant Human Bromodomains [(BRD2 (1-473) (Y113A) and (Y386A), BRD3 (1-435) (Y73A) and (Y348A) BRD4 (1-477) (Y97A) and (Y390A) and BRDT (1-397) (Y66A) and (Y309A)] were expressed in E. coli cells (in pET15b vector for BRD2/3/4 and in pET28a vector for BRDT) with a 6-His tag at the N-terminal. The His-tagged Bromodomain pellet was resuspended in 50 mM HEPES (pH7.5), 300 mM NaCl, 10 mM imidazole & 1 μl/mL protease inhibitor cocktail and extracted from the E. coli cells using sonication and purified using a nickel sepharose high performance column, the proteins were washed and then eluted with a linear gradient of 0-500 mM imidazole with buffer 50 mM HEPES (pH7.5), 150 mM NaCl, 500 mM imidazole, over 20 column volumes. Final purification was completed by Superdex 200 prep grade size exclusion column. Purified protein was stored at −80° C. in 20 mM HEPES pH 7.5 and 100 mM NaCl. Protein identity was confirmed by peptide mass fingerprinting and predicted molecular weight confirmed by mass spectrometry.
Protocol for Bromodomain BRD2, 3, 4 and T, BD1^+BD2 mutant assays: All assay components were dissolved in buffer composition of 50 mM HEPES pH7.4, 50 mM NaCl, 5% Glycerol, 1 mM DTT and 1 mM CHAPS. The final concentration of bromodomain proteins were 10 nM and the Alexa Fluor647 ligand was at Kd. These components were premixed and 5 μl of this reaction mixture was added to all wells containing 50 nl of various concentrations of test compound or DMSO vehicle (0.5% DMSO final) in Greiner 384 well black low volume microtitre plates and incubated in dark for 30 minutes at room temperature. 5 μl of detection mixture containing 1.5 nM final concentration anti-6His Europium chelate was added to all wells and a further dark incubation of at least 30 minutes was performed. Plates were then read on the Envision platereader, (λex=317 nm, donor λem=615 nm; acceptor λem=665 nm; Dichroic LANCE dual). Time resolved fluorescent intensity measurements were made at both emission wavelengths and the ratio of acceptor/donor was calculated and used for data analysis. All data was normalized to the mean of 16 high (inhibitor control—Example 11 of WO 2011/054846A1) and 16 low (DMSO) control wells on each plate. […]
Turning to `CC(=O)Nc1cc(-c2cn(C)c(=O)c3cc(CN4CCS(=O)(=O)CC4C)oc23)ccn1` (stereo not drawn) [Example 102, N-(4-(5-methyl-2-((3-methyl-1,1-dioxidothiomorpholino)methyl)-4-oxo-4,5-dihydrofuro[3,2-c]pyridin-7-yl)pyridin-2-yl)acetamide], the IC50 is at most 0.1 µM.
Next, `Cn1cc(-c2ccncc2OCC2CC2)c2oc(CN3CCN(S(C)(=O)=O)CC3)cc2c1=O` [Example 31, 7-(3-(cyclopropylmethoxy)pyridin-4-yl)-5-methyl-2-((4-(methylsulfonyl)piperazin-1-yl)methyl)furo[3,2-c]pyridin-4(5H)-one]: at most 0.1 µM; `CN1CCCN(Cc2cc3c(=O)n(C)cc(-c4ccncc4OCC4CC4)c3o2)CC1` [Example 56, 7-(3-(cyclopropylmethoxy)pyridin-4-yl)-5-methyl-2-((4-methyl-1,4-diazepan-1-yl)methyl)furo[3,2-c]pyridin-4(5H)-one hydrochloride]: at most 0.1 µM; `CC(c1cc2c(=O)n(C)cc(-c3ccnc(OCC4CCOCC4)c3)c2o1)N1CCN(S(C)(=O)=O)CC1` (stereo not drawn) [Example 21, 5-methyl-2-(1-(4-(methylsulfonyl)piperazin-1-yl)ethyl)-7-(2-((tetrahydro-2H-pyran-4-yl)methoxy)pyridin-4-yl)furo[3,2-c]pyridin-4(5H)-one formate]: at most 0.1 µM.
On to `CC(=O)N1CCN(Cc2cc3c(=O)n(C)cc(-c4ccnc(OCC5CCOCC5)c4)c3o2)C(C)C1` (stereo not drawn) [Example 47, 2-((4-acetyl-2-methylpiperazin-1-yl)methyl)-5-methyl-7-(2-((tetrahydro-2H-pyran-4-yl)methoxy)pyridin-4-yl)furo[3,2-c]pyridin-4(5H)-one hydrochloride], for which the IC50 is at most 0.1 µM.
As to `Cl.[2H]C([2H])([2H])n1cc(-c2ccnc(NC(C)=O)c2)c2oc(CN3CCN(S(C)(=O)=O)C[C@H]3C)cc2c1=O` [Example 62, (R)-N-(4-(5-(^2H3)methyl-2-((2-methyl-4-(methylsulfonyl)piperazin-1-yl)methyl)-4-oxo-4,5-dihydrofuro[3,2-c]pyridin-7-yl)pyridin-2-yl)acetamide], the IC50 is at most 0.1 µM.
For `C[C@@H]1CN(S(C)(=O)=O)CCN1Cc1cc2c(=O)n(C)cc(-c3ccnc(NC(=O)C4CC4)c3)c2o1` [Example 24, (R)—N-(4-(5-methyl-2-((2-methyl-4-(methylsulfonyl)piperazin-1-yl)methyl)-4-oxo-4,5-dihydrofuro[3,2-c]pyridin-7-yl)pyridin-2-yl)cyclopropanecarboxamide], the IC50 was at most 0.1 µM.
With `C[C@@H]1CN(S(C)(=O)=O)CCN1Cc1cc2c(=O)n(C)cc(-c3ccncc3OCC3COC3)c2o1` [Example 46, (R)-5-methyl-2-((2-methyl-4-(methylsulfonyl)piperazin-1-yl)methyl)-7-(3-(oxetan-3-ylmethoxy)pyridin-4-yl)furo[3,2-c]pyridin-4(5H)-one], the IC50 is at most 0.1 µM.
As for `C[C@@H]1CN(S(C)(=O)=O)CCN1Cc1cc2c(=O)n(C)cc(-c3cccc(N)c3)c2o1` [Example 50, (R)-7-(3-aminophenyl)-5-methyl-2-((2-methyl-4-(methylsulfonyl)piperazin-1-yl)methyl)furo[3,2-c]pyridin-4(5H)-one], the IC50 was at most 0.1 µM.
The result for `CC(=O)Nc1cc(-c2cn(C)c(=O)c3cc(CN4CCN(S(C)(=O)=O)CC4)oc23)ccn1` [Example 37, N-(4-(5-methyl-2-((4-(methylsulfonyl)piperazin-1-yl)methyl)-4-oxo-4,5-dihydrofuro[3,2-c]pyridin-7-yl)pyridin-2-yl)acetamide] reads at most 0.1 µM.
As for `CC(=O)Nc1cc(-c2cn(C)c(=O)c3cc(C(C)(C)N4CCN(S(C)(=O)=O)CC4)oc23)ccn1` [Example 65, N-(4-(5-methyl-2-(2-(4-(methylsulfonyl)piperazin-1-yl)propan-2-yl)-4-oxo-4,5-dihydrofuro[3,2-c]pyridin-7-yl)pyridin-2-yl)acetamide], the IC50 was at most 0.1 µM.
For the molecule `COCCOc1cnccc1-c1cn(C)c(=O)c2cc(CN3CCN(S(C)(=O)=O)C[C@H]3C)oc12` [Example 66, (R)-7-(3-(2-methoxyethoxy)pyridin-4-yl)-5-methyl-2-((2-methyl-4-(methylsulfonyl)piperazin-1-yl)methyl)furo[3,2-c]pyridin-4(5H)-one], the IC50 was at most 0.1 µM.
Regarding `CC(Nc1cc(-c2cn(C)c(=O)c3cc(CN4CCN(S(C)(=O)=O)CC4)oc23)ccn1)c1ccccc1` (stereo not drawn) [Example 14, 5-methyl-2-((4-(methylsulfonyl)piperazin-1-yl)methyl)-7-(2-((1-phenylethyl)amino)pyridin-4-yl)furo[3,2-c]pyridin-4(5H)-one], the IC50 is at most 0.1 µM.
Consider `C[C@@H]1CN(S(C)(=O)=O)CCN1Cc1cc2c(=O)n(C)cc(-c3ccncc3OCC3CC3(F)F)c2o1` (stereo partly drawn) [Example 61, 7-(3-((2,2-difluorocyclopropyl)methoxy)pyridin-4-yl)-5-methyl-2-(((R)-2-methyl-4-(methylsulfonyl)piperazin-1-yl)methyl)furo[3,2-c]pyridin-4(5H)-one], for which the IC50 was at most 0.01 µM.
For `CC(=O)Nc1cc(-c2cn(C)c(=O)c3cc(CN4CCN(S(C)(=O)=O)C[C@H]4C)oc23)ccn1` [Example 2, (R)—N-(4-(5-methyl-2-((2-methyl-4-(methylsulfonyl)piperazin-1-yl)methyl)-4-oxo-4,5-dihydrofuro[3,2-c]pyridin-7-yl)pyridin-2-yl)acetamide], the IC50 is at most 0.1 µM.
Turning to `C[C@@H]1CN(S(C)(=O)=O)CCN1Cc1cc2c(=O)n(C)cc(-c3ccncc3OCCF)c2o1` [Example 72, (R)-7-(3-(2-fluoroethoxy)pyridin-4-yl)-5-methyl-2-((2-methyl-4-(methylsulfonyl)piperazin-1-yl)methyl)furo[3,2-c]pyridin-4(5H)-one], the IC50 is at most 0.1 µM.
Turning to `C[C@@H]1CN(S(C)(=O)=O)CCN1Cc1cc2c(=O)n(C)cc(-c3ccnc(OCCN4CCCC4=O)c3)c2o1` [Example 35, (R)-5-methyl-2-((2-methyl-4-(methylsulfonyl)piperazin-1-yl)methyl)-7-(2-(2-(2-oxopyrrolidin-1-yl)ethoxy)pyridin-4-yl)furo[3,2-c]pyridin-4(5H)-one], the IC50 is at most 0.01 µM.
Take `CCNC(=O)c1ccc(-c2cn(C)c(=O)c3cc(CN4CCN(S(C)(=O)=O)CC4)oc23)c(OCC2CC2)c1` [Example 68, 3-(cyclopropylmethoxy)-N-ethyl-4-(5-methyl-2-((4-(methylsulfonyl)piperazin-1-yl)methyl)-4-oxo-4,5-dihydrofuro[3,2-c]pyridin-7-yl)benzamide]: the IC50 was at most 0.1 µM.
As for `C[C@@H]1CN(S(C)(=O)=O)CCN1Cc1cc2c(=O)n(C)cc(-c3cccnc3NCC3CC3)c2o1` [Example 49, (R)-7-(2-((cyclopropylmethyl)amino)pyridin-3-yl)-5-methyl-2-((2-methyl-4-(methylsulfonyl)piperazin-1-yl)methyl)furo[3,2-c]pyridin-4(5H)-one], the IC50 was at most 0.1 µM.
In the case of `C[C@@H]1CN(S(C)(=O)=O)CCN1Cc1cc2c(=O)n(C)cc(-c3ccnc(N)c3)c2o1` [Example 59, (R)-7-(2-aminopyridin-4-yl)-5-methyl-2-((2-methyl-4-(methylsulfonyl)piperazin-1-yl)methyl)furo[3,2-c]pyridin-4(5H)-one], the IC50 was at most 0.1 µM.
For the molecule `CCOc1cnccc1-c1cn(C)c(=O)c2cc(CN3CCN(S(C)(=O)=O)C[C@H]3C)oc12` [Example 52, (R)-7-(3-ethoxypyridin-4-yl)-5-methyl-2-((2-methyl-4-(methylsulfonyl)piperazin-1-yl)methyl)furo[3,2-c]pyridin-4(5H)-one], the IC50 was at most 0.1 µM.
